The results in this text go back to US10231463B2, “Food mass suitable for microwaving” (Chemische Fabrik Budenheim KG, priority 2013, dated 2019).

Series [1] in a line: Thawing and baking trials with yeast-raised wheat frozen doughs in a microwave oven. The conditions noted are these: yeast-raised wheat frozen dough; for ΔT (temperature difference between crust temperature and crumb temperature): 2 parts by weight additive, 600 watts, 120 seconds; for Microwave activity: assessment scale from ΔT. How it is done:
Dough Composition (Basic Recipe):
In addition 2 parts by weight of microwave absorber were added to the basic recipe.
• Mixing and kneading time: 3+2 minutes (the latter in a Stephan mixer) • Dough standing time: 20 minutes • Dough piece weight: 200 g • Cooking time of the dough pieces: 20 minutes • Freezing time: about 4 hours • Deep freeze storage time: about 2 days Thawing and Baking Trials:
The deep-frozen dough pieces were exposed to microwave radiation in a microwave oven from Panasonic (model: NN-GD560M—inverter microwave) for a predetermined period of 120 seconds and with a predetermined microwave power of 600 watts (according to the device indication). After 2 minutes of standing time the temperature of the crust and the crumb was measured by means of an infrared temperature sensor at various measurement points on the dough piece.
Measurement value 1 (M1)=average crust temperature outside
Measurement value 2 (M2)=average crumb temperature in the interior of the dough piece.

The nature of series [2]: Pore volume by nitrogen gas adsorption (BJH method, BELSORP-mini II). The series is classed as physicochemical. The conditions noted are these: total pore volume Vp, nitrogen adsorption at 77.3 K. The text has this:
Determining the Pore Volume
The pore volume in accordance with the present invention is characterised by means of gas adsorption. The recording of physisorption isotherms (adsorption and desorption isotherms) of inert gas molecules at low temperatures is routinely used for determining solids parameters.
The BJH method provides an algorithm for the calculation of pore width distribution from nitrogen adsorption data on the assumption of a cylindrical pore geometry. In that respect consideration is given to the change in the adsorbed volume in the pores in dependence on the pore radius, wherein the pore radius distribution function is related as a relative value to the total pore volume. […] It is assumed that the entire pore system is filled with a capillary condensate.

Regarding `O=P([O-])([O-])OP(=O)([O-])[O-].[Zn+2].[Zn+2]` [ZPP, Zinc pyrophosphate], in series [1], the “ΔT (temperature difference between crust temperature and crumb temperature)” value amounted to 37.9 °C; the Microwave activity is given as 2 (ΔT=25 to 40° C.=good). Besides, in series [2], the “Pore Volume” value was 10.5 10^−3 cm^3/g.

In the case of `O=P([O-])([O-])OP(=O)([O-])[O-].[Cu+2].[Cu+2]` [CuPP, Copper-II pyrophosphate], in series [1], the “ΔT (temperature difference between crust temperature and crumb temperature)” value came to 37.9 °C; the Microwave activity is on record as 2 (ΔT=25 to 40° C.=good). Moreover, the “Pore Volume” value in series [2] is given as 12 10^−3 cm^3/g.

As for `O=P([O-])(O)O.O=P([O-])(O)O.[Mg+2]` [MSPA, Monomagnesium phosphate anhydrate], in series [1], the “ΔT (temperature difference between crust temperature and crumb temperature)” value came to 41.1 °C; the Microwave activity is given as 1 (ΔT=>40° C.=very good). Besides, in series [2], the “Pore Volume” value is reported as 4.5 10^−3 cm^3/g.

With `O=C([O-])[O-].[Ca+2]` [CaCO3, Calcium carbonate], in series [1], the “ΔT (temperature difference between crust temperature and crumb temperature)” value stood at 31.5 °C; the Microwave activity is reported as 2 (ΔT=25 to 40° C.=good). In addition, the “Pore Volume” value in series [2] was 9.0 10^−3 cm^3/g.

In the case of `O=P([O-])([O-])[O-].O=P([O-])([O-])[O-].[Ca+2].[Ca+2].[Ca+2]` [TCP, Tricalcium phosphate], in series [1], the “ΔT (temperature difference between crust temperature and crumb temperature)” value amounted to 36.2 °C; the Microwave activity is 2 (ΔT=25 to 40° C.=good). Further, the “Pore Volume” value in series [2] was 120 10^−3 cm^3/g.

In the case of `[Cl-].[Cl-].[Mg+2]` [MgCl2(V), Magnesium chloride, reference compound], in series [1], the “ΔT (temperature difference between crust temperature and crumb temperature)” value came out at 19.8 °C; the Microwave activity is 3 (ΔT=<25° C.=no additional activity). In series [2], the “Pore Volume” value is on record as 2.0 10^−3 cm^3/g.

For the compound `[Mg+2].[OH-].[OH-]` [Mg(OH)2, Magnesium hydroxide], in series [1], the “ΔT (temperature difference between crust temperature and crumb temperature)” value is 62.5 °C; the Microwave activity is 1 (ΔT=>40° C.=very good). The “Pore Volume” value in series [2] is 18.2 10^−3 cm^3/g.

Take `O.O.O=P([O-])([O-])[O-].O=P([O-])([O-])[O-].[Zn+2].[Zn+2].[Zn+2]` [TZP, Trizinc phosphate dihydrate]: in series [1], the “ΔT (temperature difference between crust temperature and crumb temperature)” value came to 38.0 °C; the Microwave activity is 2 (ΔT=25 to 40° C.=good). The “Pore Volume” value in series [2] is 6.3 10^−3 cm^3/g.

For the compound `O.O=P([O-])(O)O.O=P([O-])(O)O.[Ca+2]` [MCPM, Monocalcium phosphate monohydrate], in series [1], the “ΔT (temperature difference between crust temperature and crumb temperature)” value amounted to 32.5 °C; the Microwave activity is 2 (ΔT=25 to 40° C.=good). Also, the “Pore Volume” value in series [2] is listed as 23 10^−3 cm^3/g.

Turning to `O.O.O.O.O=P([O-])([O-])[O-].O=P([O-])([O-])[O-].[Mg+2].[Mg+2].[Mg+2]` [TMP, Trimagnesium phosphate tetrahydrate], in series [1], the “ΔT (temperature difference between crust temperature and crumb temperature)” value was 41.0 °C; the Microwave activity is 1 (ΔT=>40° C.=very good). The “Pore Volume” value in series [2] is given as 16 10^−3 cm^3/g.

For the compound Calcium gluconate [CaGl], in series [1], the “ΔT (temperature difference between crust temperature and crumb temperature)” value stood at 36.6 °C; the Microwave activity is recorded as 2 (ΔT=25 to 40° C.=good). Further, in series [2], the “Pore Volume” value is recorded as 10.0 10^−3 cm^3/g.

With “Ammonium molybdate [AmMD(V), reference compound]”, in series [1], the “ΔT (temperature difference between crust temperature and crumb temperature)” value worked out at 24.2 °C; the Microwave activity is on record as 3 (ΔT=<25° C.=no additional activity). In addition, in series [2], the “Pore Volume” value is 2.6 10^−3 cm^3/g.

As for `O=C([O-])CC(O)(CC(=O)[O-])C(=O)[O-].O=C([O-])CC(O)(CC(=O)[O-])C(=O)[O-].[Ca+2].[Ca+2].[Ca+2]` [TCC, Tricalcium citrate], in series [1], the “ΔT (temperature difference between crust temperature and crumb temperature)” value worked out at 28.6 °C; the Microwave activity is given as 2 (ΔT=25 to 40° C.=good). In addition, in series [2], the “Pore Volume” value was 14.2 10^−3 cm^3/g.

For `O.O.O.O=P([O-])([O-])O.[Mg+2]` [DMP, Dimagnesium phosphate trihydrate], in series [1], the “ΔT (temperature difference between crust temperature and crumb temperature)” value amounted to 41.9 °C; the Microwave activity is recorded as 1 (ΔT=>40° C.=very good). The “Pore Volume” value in series [2] is listed as 6.0 10^−3 cm^3/g.

Regarding `O=S(=O)([O-])[O-].O=S(=O)([O-])[O-].[Al+3].[Na+]` [SAS, Acid sodium aluminium sulphate], in series [1], the “ΔT (temperature difference between crust temperature and crumb temperature)” value worked out at 39.6 °C; the Microwave activity is 2 (ΔT=25 to 40° C.=good). In addition, in series [2], the “Pore Volume” value is 3.9 10^−3 cm^3/g.

On to `O.O.O=P([O-])([O-])O.[Ca+2]` [DCPD, Dicalcium phosphate dihydrate], for which, in series [1], the “ΔT (temperature difference between crust temperature and crumb temperature)” value was found to be 26.2 °C; the Microwave activity is reported as 2 (ΔT=25 to 40° C.=good). Further, the “Pore Volume” value in series [2] was 5.3 10^−3 cm^3/g.

As for `O=P([O-])(O)O.O=P([O-])(O)O.[Ca+2]` [MCPA(V), Monocalcium phosphate anhydrate, reference compound], in series [1], the “ΔT (temperature difference between crust temperature and crumb temperature)” value was 17.0 °C; the Microwave activity is recorded as 3 (ΔT=<25° C.=no additional activity). The “Pore Volume” value in series [2] is given as 2.3 10^−3 cm^3/g.

Take `O=P([O-])([O-])OP(=O)([O-])[O-].[Na+].[Na+].[Na+].[Na+]` [TSPP, Tetrasodium pyrophosphate]: in series [1], the “ΔT (temperature difference between crust temperature and crumb temperature)” value came out at 40.8 °C; the Microwave activity is 1 (ΔT=>40° C.=very good). For the same compound, in series [2], the “Pore Volume” value is 3.3 10^−3 cm^3/g.
